Reference: patent US20040209934A1, “Protein phosphate inhibitors” (priority 2001, published 2004)
Read-outs that look alike come from different tables or passages of the source.

Columns and labels:
PP1 [1] = molecular target: T1, PP1 (Homo sapiens, UniProt P62136); assay: Protein phosphatase assay with [32P]-glycogen phosphorylase a as substrate, PP1; type: biochemical; parameters: made in house
Protocol: (§1) Protein phosphatase assays were carried out essentially as described (Collins, E.; Sim, A. T. R.; Methods in Molecular Biology 1998, 93, 79-102) using [^32P]-glycogen phosphorylase a as substrate and recombinant PP1 (Bernt, N. Methods in Molecular Biology, 1998, 93, 67-78) or partially purified (chicken skeletal muscle) PP2A catalytic subunits (Mackintosh, C. In Protein Phosphorylation: A Practical Approach, Ed D G Hardie, IRL, 1993). Briefly, enzyme activity was measured at 30 ° C. in a buffer (final volume of […]) containing 50 mM Tris-HCl (pH 7.5), 1 mM EGTA, 0.1 mM EDTA, 5 mM Caffeine, 0.1% mercaptoethanol, 0.3 mg/mL BSA. The concentration of PP1 or PP2A used was such that the reaction was limited to 15% dephosphorylation to ensure linearity. The reaction was started with the addition of […] [^32P]-glycogen phosphorylase a and terminated after 20 minutes by the addition of […] ice-cold 70% TCA. After 10 minutes on ice the sample was centrifuged and a […] aliquot of the supematant was removed for scintillation counting of the [^32p] released during the reaction.

PP1 [2] = molecular target: T1, PP1; conditions: read-out: PP1 protein phosphatase inhibition (IC50), cited from earlier work
PP2A = PP2A (Homo sapiens, UniProt P67775); conditions: naturally occurring toxins, background Table 1; read-out: PP2A protein phosphatase inhibition (IC50); cited from earlier work
[3] = system: HL60 (human leukaemia, p53 nul); assay: cells; type: cell-based
From the text: (§2) The MTT assay can be used assess cytotoxicity.

[4] = system: HT29 (human colon carcinoma, p53 mt); assay: cells; type: cell-based
From the text: as §2

[5] = system: WiDr (human colon carcinoma, p53 mt); assay: cells; type: cell-based; conditions: 72 h, read-out: Cytotoxicity IC50, WiDr Colon
From the text: as §2

[6] = system: 143B (143BTK-, human oesteosarcoma); assay: cells; conditions: 72 h, read-out: Cytotoxicity IC50, 143B Ostesarcoma
From the text: (§3) The cell lines chosen for study include both normal (non-cancer) and tumour-derived cell lines that represent both haematopoietic and solid tumor types with varying cell cycle control mechanisms (ie p53 status); CCD-18Co (normal human colon), L1210 (murine leukaemia, p53 mt), HL60 (human leukaemia, p53 nul), A2780 (human ovarian carcinoma, p53 wt), ADDP (cisplatin resistant A2780 cells, p53 mt), HCT116 (human colon carcinoma, p53 wt), SW480 (human colon carcinoma, p53 wt), WiDr (human colon carcinoma, p53 mt), HT29 (human colon carcinoma, p53 mt) and 143BTK-(human oesteosarcoma) cells.
(§4) The MTT assay can be used assess cytotoxicity. This assay determines cell viability by the ability of mitochondrial dehydrogenase to produce formazan crystals from 3-(4,5-dimethylthiazol-2-yl)2,5-diphenyltetrazolium bromide. The viable cell number/well is directly proportional to the production of formazan, which following solubilization, can be measured spectrophotometrically (540 nm). […] This technique is also used by the NCI(National Cancer Institute, USA) to screen for new anticancer agents. The MTT assay may be performed 72 h after exposure of the cells to varying doses of the phosphatase inhibitors. Since these agents are likely to interfere with the cell cycle it is important to test the cytotoxicity for at least two-three cell divisions.

[7] = system: A2780 (human ovarian carcinoma, p53 wt); assay: cells; conditions: A2780, 72 h, read-out: Cytotoxicity IC50, A2780 Ovarian
From the text: as §3, §4

HCT116 cells = assay: Cell cycle analysis (propidium iodide, flow cytometry); type: cell-based, human; conditions: Cantharidin 25 μM, 6 h
From the text: The distribution of cells into the various phases of the cell cycle can be analysed by measuring the DNA content of the cells, via propidium iodide staining and subsequent flow cytometric analysis. Thus senescent cells (G0) and cells in the first gap (G1) of the cell cycle will have approximately half of the DNA content of cells about to under go mitosis (G2+M), while those cells synthesising DNA (S-phase) will have an intermediary DNA content. Using this technology, the effect of these new drugs on cells in the various phases of the cycle can be determined.

[8] = system: ten difference cancer cell lines of ovarian, bone, colon and baematopoietic origin; assay: cells; conditions: read-out: Cytotoxicity IC50 values, range over ten cancer cell lines
[9] = system: L1210 (murine leukaemia, p53 mt); assay: cells; type: cell-based; conditions: Mus musculus, Table 3, read-out: Cytotoxicity IC50, L1210
From the text: as §2

[10] = system: SW480 (human colon carcinoma, p53 wt); assay: cells; type: cell-based; conditions: Table 3, read-out: Cytotoxicity IC50, SW480
From the text: as §2

[11] = molecular target: partially purified (chicken skeletal muscle) PP2A catalytic subunits (Gallus gallus, UniProt P48463); type: biochemical
Protocol: as §1

[12] = Table 2 cantharimides, average of three experiments in triplicate, read-out: PP1 Inhibition IC50
[13] = naturally occurring toxins, background Table 1

T1 sequence (P62136 whole entry): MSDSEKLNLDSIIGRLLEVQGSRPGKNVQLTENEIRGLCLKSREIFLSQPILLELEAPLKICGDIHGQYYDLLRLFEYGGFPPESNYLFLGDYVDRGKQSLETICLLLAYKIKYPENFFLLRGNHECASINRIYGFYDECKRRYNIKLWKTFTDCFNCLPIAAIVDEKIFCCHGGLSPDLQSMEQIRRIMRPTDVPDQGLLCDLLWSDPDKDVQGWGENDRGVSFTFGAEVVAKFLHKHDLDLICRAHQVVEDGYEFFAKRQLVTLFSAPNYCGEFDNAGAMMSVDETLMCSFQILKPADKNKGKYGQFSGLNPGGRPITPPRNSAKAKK
Chain of PP2A (P67775 whole entry): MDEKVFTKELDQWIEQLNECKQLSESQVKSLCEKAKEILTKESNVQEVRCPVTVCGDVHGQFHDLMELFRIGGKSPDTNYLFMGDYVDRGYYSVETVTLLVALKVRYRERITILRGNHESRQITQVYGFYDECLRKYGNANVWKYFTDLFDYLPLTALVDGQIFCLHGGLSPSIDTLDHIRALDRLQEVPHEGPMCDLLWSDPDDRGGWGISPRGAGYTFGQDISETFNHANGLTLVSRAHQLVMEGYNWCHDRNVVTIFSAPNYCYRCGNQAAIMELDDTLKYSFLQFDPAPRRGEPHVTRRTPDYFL
Chain of partially purified (chicken skeletal muscle) PP2A catalytic subunits (P48463 whole entry): as the sequence (P67775 whole entry) above, with D2E, V5S, T7A, K21R, K29R, R108P counted along it

With O=C(O)C(Cc1ccc(O)cc1)N1C(=O)C2C3CCC(O3)C2C1=O (single isomer, unassigned) [Compound 17] the IC50 (PP1 [1]; [12]) was 570 ± 330 µM.
For C[C@@](O)(/C=C/[C@H]1CC=CC(=O)O1)[C@@H](C[C@@H](O)\C=C/C=C\C=C\CO)OP(=O)(O)O [Fostriecin], the IC50 (PP1 [2]; [13]) is given as 131 µM and the IC50 (PP2A) is given as 0.0034 µM.
In the case of COC[C@@H]([C@H](O)[C@H](O)C(=O)NCC[C@H](C)c1nc(/C=C/C[C@@H]2O[C@]3(C[C@@H](O)[C@@H]2C)O[C@H]([C@H](C[C@H](O)[C@H](C)[C@H](O)[C@H](C)/C=C(C)/C(C)=C/C=C/C(C)=C\C#N)OC)[C@H](OP(=O)(O)O)C3(C)C)co1)N(C)C [Calyculin A], the IC50 (PP1 [2]) is listed as 0.002 µM and the IC50 (PP2A) is listed as 0.0005 µM.
For CC[C@H](C)[C@@H](C(=O)O)N1C(=O)C2C3CCC(O3)C2C1=O (stereo partly drawn) [Compound 11], the IC50 (PP1 [1]; [12]) was > 1000 µM.
Work on CCCOC(=O)C1C(C(=O)O)[C@@H]2CC[C@H]1O2 (stereo partly drawn) yielded an IC50 ([3]; HL-60, 72 h, read-out: Cytotoxicity IC50, HL60 Leukaemia) of 270 ± 15 µM, an IC50 ([4]; HT-29, 72 h, read-out: Cytotoxicity IC50, HT29 Colon) of 15 ± 5 µM and an IC50 [5] of 33 ± 6 µM. It also gave an IC50 [6] of 450 ± 50 µM and an IC50 [7] of 110 ± 10 µM.
In the case of C[C@@]12C(=O)OC(=O)[C@]1(C)[C@H]1CC[C@@H]2O1 [Compound 1, cantharidin], the “Cell cycle distribution, S-phase” value (HCT116 cells) is reported as “significant increased S-phase population” and the IC50 [8] is reported as 6 to 18 µM.
In the case of O=C(O)[C@@H](Cc1ccccc1)N1C(=O)C2C3CCC(O3)C2C1=O (stereo partly drawn) [Compound 6], the IC50 (PP1 [1]; [12]) is reported as > 1000 µM.
In the case of CC(C)C[C@@H](C(=O)O)N1C(=O)C2C3CCC(O3)C2C1=O (stereo partly drawn) [Compound 9], the IC50 (PP1 [1]; [12]) is reported as > 1000 µM.
With O=C(O)[C@H](Cc1cnc[nH]1)N1C(=O)C2C3CCC(O3)C2C1=O (stereo partly drawn) [Compound 15] the IC50 ([3]; HL-60, Table 3, read-out: Cytotoxicity IC50, HL60) was 55 ± 24 µM, the IC50 ([4]; HT-29, Table 3, read-out: Cytotoxicity IC50, HT29) was 28 ± 10 µM and the IC50 [9] was 30 ± 14 µM. The IC50 [10] was 61 ± 30 µM, the IC50 (PP1 [1]; [12]) was 2.82 ± 0.6 µM and the IC50 (PP1 [1]; Table 3 summary, read-out: PP1 Inhibition) was 2.82 ± 0.6 µM.
O=C1OC(=O)[C@H]2[C@@H]1[C@@H]1CC[C@H]2O1 [Compound 3, norcantharidin, reference compound] showed an IC50 (PP1 [1]; [12]) of 5.31 ± 0.36 µM.
For C[C@H](C(=O)O)N1C(=O)C2C3CCC(O3)C2C1=O (stereo partly drawn) [Compound 4], the “PP2A inhibition, in words” value [11] was “marginal activity” and the IC50 (PP1 [1]; [12]) was > 1000 µM.
Work on CCOC(=O)C1C(C(=O)O)[C@@H]2CC[C@H]1O2 (stereo partly drawn) [R = CH3CH2] yielded an IC50 (PP1 [1]; read-out: PP1 IC50) of 2.96 µM.
In the case of CO[C@H]([C@H](O)CC(=O)[C@@H](C)[C@@H](O)CC[C@@H](C)[C@@H]1O[C@]2(CC[C@@H](C)[C@H](CC[C@H](C)C(C)=O)O2)CC[C@@H]1C)[C@H](OC(=O)C[C@@H](O)C1=C(C)C(=O)OC1=O)C(C)C [Tautomycin], the IC50 (PP1 [2]; [13]) is given as 0.0003 µM and the IC50 (PP2A) is given as 0.001 µM.
